Where “and” joins values, the source holds several entries; their conditions need not be identical. Equal values may be shown once. Entries after “also recorded” stand apart in the source; their conditions may differ.
Legend:
Type in all cases: cell-based, human
[1] = test system: Vα24^+ NKT cells from PBMCs; test: Expansion of Vα24+ NKT cells from normal PBMCs by α-GalCer (flow cytometry)
Protocol: (§1) Buffy coat (crude PBMCs), prepared from 400 ml of whole blood drawn from a healthy person, was supplied by the Japanese Red Cross Blood Center. A cell fraction containing PBSCs (crude G-PBSCs) was obtained from patients undergone chemotherapy followed by a dose of 100 to 250 μg/body/day G-CSF subcutaneously for 6 to 10 days (Table 1) by performing apheresis between 2 and 24 hours after the last injection of G-CSF with COBE Spectra™ Cell Separator (LAKE WOOD, Colo. USA 80215) (Hematopoietic Stem Cells: Biology and Therapeutic Applications. Levit DJ, Mertelsmann R(eds), Marcel Dekker, Inc., New York, 1995, 611-630).
(§2) From the obtained crude PBMCs and crude G-PBSCs, mononuclear cell fractions (referred to as “PBMCs” and “G-PBSCs”, respectively) were prepared using Lympho-sepal density-gradient medium (Immuno-Biological Laboratories Gunma, Japan).
(§3) PBMCs and G-PBSCs obtained in (1) were cultured with RPMI-1640 supplemented with 2 mM L-glutamine, 1% pyruvate, 2% bicarbonate, 100 U/ml penicillin, 100 U/ml streptomycin (GIBCO BRL) in the presence of 100 U/ml IL-2 and 100 ng/ml of α-GlyCer. Cells were incubated in a water-vapor-saturated atmosphere containing 5% CO2 gas at 37° C. The cell number and characteristics of these cultured cells were examined on day 0 (d0) and day 12 (d12). As α-GlyCer, (2S,3S,4R)-1-O-(α-D-galactopyranosyl)-N-hexacosanoyl-2-amino-1,3,4-octadecanetriol; referred to as “α-GalCer”) prepared by Kirin Beer Kabushiki Kaisha was used.
(§4) Flow cytometry of the cultured cells was performed using a FACScan cytometer (Becton Dickinson, Sunyvale, Calif.) as follows. Fluorescein isothiocynate (FITC)-conjugated anti-Vα24 (C15), phycoerythrin (PE)-conjugated anti-Vβ11(C21), PE-conjugated anti-CD3, PE-conjugated anti-CD56, PE-conjugated anti-DC83 and PE-conjugated anti-CD8 were obtained from Immunotech (Marseilelles Cedex, France). FITC-conjugated PE-conjugated anti-CD161, PE-conjugated anti-IL-2Rβ, PE-conjugated anti-HLA-DR and PE-conjugated anti-CD4 were obtained from Becton Dickinson. PE-conjugated anti-CD86 was obtained from Pharmingen (San Diego, Calif.). PE-conjugated anti-CD57 was obtained from SIGMA (Saint Louis, Mo.) and used as iso-type controls. Cultured cells were harvested and resuspended in 10% fetal calf serum (FCS)-RPMI1620 medium at a density of 1×10^5/ml. After centrifugation for 3 min at 2000 rpm using MRX-150 high speed refrigerated micro centrifuges (TOMY SEIKO CO., LTD. Tokyo, Japan), the cells were resuspended in 50 μl of PBS containing 1 μl of antibodies described above and incubated for 30 min at 4° C. The cells were then washed twice with PBS, resuspended in PBS and stored at 4° C. until analysis. Data are shown as FSC, SSC, FL-1 indicating Vα24 or CD4, and FL-2 indicating Vβ11, CD8, CD3.

[2] = test system: Vα24^+ NKT cells from G-PBSCs; test: Expansion of Vα24+ NKT cells from G-PBSCs by α-GalCer (flow cytometry)
Protocol: as §1, §2, §3, §4

[3] = test system: Vα24^+ NKT cells from G-PBSCs; test: as above; details: IL-2 and α-GalCer (FIG. 5)
[4] = normal PBMCs, 100 ng/ml α-GalCer + 100 U/ml IL-2, day 12, one line per donor (No. 1-5)
[5] = G-PBSCs of cancer patients, 100 ng/ml α-GalCer + 100 U/ml IL-2, day 12, one line per patient (No. 6-10)

CCCCCCCCCCCCCCCCCCCCCCCCCC(=O)N[C@@H](CO[C@H]1O[C@H](CO)[C@H](O)[C@H](O)[C@H]1O)[C@H](O)[C@H](O)CCCCCCCCCCCCCC [α-GalCer, (2S,3S,4R)-1-O-(α-D-galactopyranosyl)-N-hexacosanoyl-2-amino-1,3,4-octadecanetriol]
course of number of Vα24+ NKT cells after day 12 ([1]; PBMCs, IL-2 and α-GalCer (FIG. 5)): gradually decrease after day 12 | D12 NKT % α-GalCer (+) [1, 4]: 0.18% and 6.58% and 0.19% and 0.3% and 0.66% | D12 NKT (cell number) α-GalCer (+) [1, 4]: 2376 and 24346 and 9500 and 18300 and 20328 | α-GalCer (+)/(−) ([1]; normal PBMCs, day 12, with vs without α-GalCer, one line per donor (No. 1-5)): 2.2 and 15.5 and 1.0 and 4.1 and 4.5 | d12/d0 ([1]; normal PBMCs, with α-GalCer, day 12 vs day 0, one line per donor (No. 1-5)): 1.6 and 4.1 (2×) and 1.4 and 6.1 | D12 NKT % α-GalCer (+) [2, 5]: 2.05% and 8.49% and 4.73% and 3.21% and 22.6% | D12 NKT (cell number) α-GalCer (+) [2, 5]: (51660); also recorded: (314130); also recorded: (520300); also recorded: (64200); also recorded: (1414375) | α-GalCer (+)/(−) ([2]; G-PBSCs, day 12, with vs without α-GalCer, one line per patient (No. 6-10)): 205.0 and 196.9 and 101.6 and 114.6 and 673.5 | d12/d0 ([2]; G-PBSCs, with α-GalCer, day 12 vs day 0, one line per patient (No. 6-10)): 34.4 and 314.1 and 104.1 and 32.1 and 1414.4 | amplification in G-PBSCs relative to PBMCs ([2]; day 12, IL-2 and α-GalCer): at least 10 fold | course of number of Vα24+ NKT cells after day 12 [3]: continue to expand up to day 30 of culture
